Test results from article PMC8041276 (ACS Chemical Neuroscience, 2021).

Experiments:
[1] = test system: Salmonella typhimurium TA100; conditions: without S9 fraction
Description: Ames microplate fluctuation protocol (MPF) assay was performed with Salmonella typhimurium strain TA100, enabling the detection base substitution mutations. Bacterial strain and exposure and indicator medium were purchased from Xenometrix AG (Allschwil, Switzerland). The mutagenic potential of tested structures was evaluated by incubation of bacteria, incapable of producing histidine, with particular concentration of test compounds for 90 min in exposure medium, containing limited amount of histidine. The occurrence of reversion events to histidine prototrophy was observed as a growth of bacteria in the indicator medium without histidine after 48 h of incubation in room temperature. Bacterial growth in 384-well plates was visualized by color change of medium from violet to yellow due to addition of pH indicator dye. Compound was classified as mutagenic, if the fold increase in number of positive wells over the medium control baseline was greater than 2.0. The solvent control baseline was defined as the mean number of positive wells in the negative control sample, increased by one standard deviation. 1% DMSO in media was used as a negative and 4-nitroquinoline N-oxide (NQNO) as positive control. The experiment was performed in triplicate. Fraction S9 was not added.

CYP3A4 = biological target: T1, CYP3A4 (Homo sapiens, UniProt P08684); test: CYP3A4 P450-Glo luminescent inhibition assay; type: in vitro ADME; conditions: 0.01–25 μM
T1 construct: purchased Promega (Madison, WI, USA)
T1 sequence (P08684 whole entry): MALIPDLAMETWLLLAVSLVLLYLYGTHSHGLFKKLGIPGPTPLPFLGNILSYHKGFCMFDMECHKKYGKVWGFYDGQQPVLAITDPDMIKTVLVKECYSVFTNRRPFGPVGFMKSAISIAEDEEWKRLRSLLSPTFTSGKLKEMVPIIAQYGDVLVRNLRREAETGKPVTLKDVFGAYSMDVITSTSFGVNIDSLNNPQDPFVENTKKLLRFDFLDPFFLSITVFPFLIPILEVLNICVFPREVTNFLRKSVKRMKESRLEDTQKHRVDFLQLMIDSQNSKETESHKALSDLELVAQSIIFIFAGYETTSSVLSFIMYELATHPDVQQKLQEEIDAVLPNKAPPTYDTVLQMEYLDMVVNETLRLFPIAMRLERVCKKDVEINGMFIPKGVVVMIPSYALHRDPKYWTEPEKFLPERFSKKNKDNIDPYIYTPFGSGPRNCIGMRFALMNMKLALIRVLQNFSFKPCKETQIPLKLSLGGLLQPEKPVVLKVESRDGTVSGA
Description: The luminescent CYP3A4 P450-Glo and CYP2D6 P450-Glo assays and protocols were provided by Promega (Madison, WI, USA). The P450-Glo systems based on the conversion proluciferins, derivatives of beetle luciferin [(4S)-4,5-dihydro-2-(6′-hydroxy-2′-benzothiazolyl)-4-thiazolecarboxylic acid] into D-luciferin were catalyzed by respective CYP isoform. D-Luciferin is formed and detected in a second reaction with the luciferin detection reagent (LDR). The amount of light produced in the second reaction is proportional to CYP activity.
The stock solutions (10 mM) of the references ketoconazole (KE), quinidine (QD), and examined compounds were performed in DMSO. The 4× concentrated dilutions were prepared before the assays. […]
The CYPs, proluciferin, and examined compounds (25 μL/well) were preincubated first for 5 min, and next the NADPH regeneration system was added (25 μL) to start the reaction. […] The control reactions for measuring the 100% of CYPs activity and minus-CYP negative control reactions for measure background luminescence were also prepared. […] Finally, LDR was added (50 μL/well), and after 20 min of incubation in room temperature the luminescence signal was measured with a microplate reader (EnSpire, PerkinElmer) in luminescence mode. […] The IC50 values and were calculated using GraphPad Prism 5 software.

H1 histaminic receptor = biological target: T2, H1 histaminic receptor (Homo sapiens, UniProt P35367); test: Eurofins Cerep off-target binding, % inhibition at 1 μM
T2 construct: Eurofins Cerep (contract assay)
T2 sequence (P35367 whole entry): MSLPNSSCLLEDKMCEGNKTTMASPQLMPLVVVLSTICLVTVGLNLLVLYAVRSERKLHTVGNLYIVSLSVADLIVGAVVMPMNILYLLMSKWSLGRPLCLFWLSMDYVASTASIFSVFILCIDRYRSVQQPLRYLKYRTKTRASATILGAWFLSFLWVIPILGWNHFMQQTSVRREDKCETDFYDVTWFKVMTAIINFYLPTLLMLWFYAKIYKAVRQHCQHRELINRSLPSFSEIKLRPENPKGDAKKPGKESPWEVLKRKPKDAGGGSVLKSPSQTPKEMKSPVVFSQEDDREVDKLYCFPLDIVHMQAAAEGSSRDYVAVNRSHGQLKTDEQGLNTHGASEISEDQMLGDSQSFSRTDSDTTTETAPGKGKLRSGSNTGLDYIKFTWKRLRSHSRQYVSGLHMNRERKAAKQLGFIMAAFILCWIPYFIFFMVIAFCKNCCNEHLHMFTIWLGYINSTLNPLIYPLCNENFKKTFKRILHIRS
Description: (§1) Additionally, the affinity of compound 27 at the adrenergic α1A, muscarinic M1, histaminergic H1, dopaminergic D3, serotoninergic 5-HT2C, 5-HT3 receptors, serotonin transporter (SERT), and the human ether-a-go-go-related gene (hERG) channel were evaluated in Eurofins Cerep.

M1 muscarinic receptor = biological target: T3, M1 muscarinic receptor (Homo sapiens, UniProt P11229); test: as above
T3 construct: Eurofins Cerep (contract assay)
T3 sequence (P11229 1-460): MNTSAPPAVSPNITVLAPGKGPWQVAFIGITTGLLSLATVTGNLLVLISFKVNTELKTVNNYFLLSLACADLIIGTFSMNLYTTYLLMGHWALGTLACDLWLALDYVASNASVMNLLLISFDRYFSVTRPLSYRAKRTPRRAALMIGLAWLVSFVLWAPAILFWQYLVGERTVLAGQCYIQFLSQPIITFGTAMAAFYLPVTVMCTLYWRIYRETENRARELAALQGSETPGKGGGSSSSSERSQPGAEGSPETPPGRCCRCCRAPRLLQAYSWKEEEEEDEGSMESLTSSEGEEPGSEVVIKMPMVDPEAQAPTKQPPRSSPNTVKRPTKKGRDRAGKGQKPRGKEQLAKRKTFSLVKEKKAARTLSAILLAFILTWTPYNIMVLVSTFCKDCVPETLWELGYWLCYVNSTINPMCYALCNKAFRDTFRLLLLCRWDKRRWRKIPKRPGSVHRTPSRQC
Description: as §1

serotonin 5-HT3 receptor = biological target: T4, serotonin 5-HT3 receptor (Homo sapiens, UniProt P46098); test: as above
T4 construct: Eurofins Cerep (contract assay)
T4 sequence (P46098 24-478): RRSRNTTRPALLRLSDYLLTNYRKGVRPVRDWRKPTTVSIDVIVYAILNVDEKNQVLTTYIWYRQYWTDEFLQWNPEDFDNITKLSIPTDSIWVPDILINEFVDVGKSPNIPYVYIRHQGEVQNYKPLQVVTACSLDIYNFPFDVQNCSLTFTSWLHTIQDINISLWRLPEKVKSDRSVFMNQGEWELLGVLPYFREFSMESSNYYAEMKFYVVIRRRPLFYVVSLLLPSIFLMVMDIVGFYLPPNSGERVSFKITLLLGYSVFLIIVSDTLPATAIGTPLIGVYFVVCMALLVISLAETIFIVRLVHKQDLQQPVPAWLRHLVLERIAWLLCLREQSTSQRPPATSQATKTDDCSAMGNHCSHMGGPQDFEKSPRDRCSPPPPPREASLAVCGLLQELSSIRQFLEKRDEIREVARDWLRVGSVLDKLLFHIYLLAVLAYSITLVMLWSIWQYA
Description: as §1

α1A adrenoreceptor = biological target: T5, α1A adrenoreceptor (Homo sapiens, UniProt P35348); test: as above
T5 construct: Eurofins Cerep (contract assay)
T5 sequence (P35348 1-466): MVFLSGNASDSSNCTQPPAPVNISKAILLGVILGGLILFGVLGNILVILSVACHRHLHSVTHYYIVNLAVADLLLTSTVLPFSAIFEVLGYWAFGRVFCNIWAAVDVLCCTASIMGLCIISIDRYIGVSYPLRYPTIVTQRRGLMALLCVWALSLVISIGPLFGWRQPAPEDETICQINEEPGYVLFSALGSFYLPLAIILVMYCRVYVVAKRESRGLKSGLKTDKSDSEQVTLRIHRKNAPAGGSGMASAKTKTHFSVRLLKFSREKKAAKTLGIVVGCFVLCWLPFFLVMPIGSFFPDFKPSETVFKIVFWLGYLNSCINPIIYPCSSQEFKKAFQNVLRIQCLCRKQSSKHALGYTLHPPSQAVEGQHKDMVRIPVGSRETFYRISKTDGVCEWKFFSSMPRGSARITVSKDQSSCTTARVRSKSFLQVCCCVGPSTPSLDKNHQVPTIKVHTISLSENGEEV
Description: as §1

[2] = biological target: T6, serotonin transporter (SERT) (Homo sapiens, UniProt P31645); test: as above
T6 construct: Eurofins Cerep (contract assay)
T6 sequence (P31645 whole entry, species assumed): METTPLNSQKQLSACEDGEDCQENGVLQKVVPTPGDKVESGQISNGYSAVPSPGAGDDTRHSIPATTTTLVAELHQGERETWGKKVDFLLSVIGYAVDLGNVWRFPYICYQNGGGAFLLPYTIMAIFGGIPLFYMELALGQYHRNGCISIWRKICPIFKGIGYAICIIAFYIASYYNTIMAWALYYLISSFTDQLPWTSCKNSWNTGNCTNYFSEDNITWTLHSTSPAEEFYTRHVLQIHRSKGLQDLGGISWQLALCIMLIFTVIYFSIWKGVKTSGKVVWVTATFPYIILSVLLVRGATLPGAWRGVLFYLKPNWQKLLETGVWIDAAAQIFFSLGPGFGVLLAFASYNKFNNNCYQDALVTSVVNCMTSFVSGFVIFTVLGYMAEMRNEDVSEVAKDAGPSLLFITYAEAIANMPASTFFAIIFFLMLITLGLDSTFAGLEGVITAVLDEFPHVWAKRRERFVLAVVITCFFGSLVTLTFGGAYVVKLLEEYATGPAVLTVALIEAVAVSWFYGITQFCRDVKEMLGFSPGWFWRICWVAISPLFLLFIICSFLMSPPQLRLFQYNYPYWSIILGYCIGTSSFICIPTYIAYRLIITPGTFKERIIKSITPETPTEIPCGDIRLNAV
Description: as §1

O=C(N[C@@H]1CCNC1)c1ccn(S(=O)(=O)c2cccc(Cl)c2)c1-c1ccc(F)cc1 [Compound 27, (R)-2-(4-Fluorophenyl)-1-[(3-chlorophenyl)sulfonyl]-N-(pyrrolidin-3-yl)-1H-pyrrole-3-carboxamide]
mutagenicity (Ames test) [1]: non-mutagenic
IC50 (CYP3A4): 69 nM
inhibition at 1 µM (H1 histaminic receptor): 9%
inhibition at 1 µM (M1 muscarinic receptor): 0%
inhibition at 1 µM (serotonin 5-HT3 receptor): 2%
inhibition at 1 µM (α1A adrenoreceptor): 15%
inhibition at 1 µM [2]: 10%
